From patent US20230200216A1, “ORGANIC LIGHT-EMITTING DEVICE” (CANON KABUSHIKI KAISHA, priority 2021, published 2023) come the findings set out here.

A short description of the data set: Sublimability: decomposition temperature (TG/DTA, 5% mass loss) minus sublimation temperature. The format is physicochemical. As to conditions: 5% mass reduction, sublimation: Ar flow, vacuum 1×10^−1 Pa. An excerpt:
Table 4 presents the results of comparisons in sublimability between exemplified compound RD21 serving as the first guest and compound 1 and between exemplary compound RD30 serving as the first guest and compound 2. As an evaluation of sublimability, comparisons are made of the temperature difference between the sublimation temperature and the decomposition temperature (ΔT=decomposition temperature−sublimation temperature). A larger temperature difference can be said to indicate higher sublimability. With regard to the decomposition temperature, TG/DTA measurement was performed, and the temperature at which a reduction in mass reached 5% was defined as the decomposition temperature. With regard to the sublimation temperature, the sublimation purification was performed by slowly increasing the temperature while allowing Ar to flow at a degree of vacuum of 1×10^−1 Pa, and the temperature at which a sufficient sublimation rate was reached was defined as the sublimation temperature.

Consider `CC(C)(C)c1cc2cc(C(C)(C)C)cc3c4ccc5c6cc7c(-c8ccccc8)c8c9ccc%10c%11cc(C(C)(C)C)cc%12cc(C(C)(C)C)cc(c%13ccc(c8c(-c8ccccc8)c7cc6c6ccc(c(c1)c23)c4c65)c9c%13%10)c%12%11` [Compound 1], for which the “ΔT = decomposition temperature − sublimation temperature” value turned out to be 40 °C. As for `c1ccc(-c2ccc(-c3ccccc3)c3c2-c2ccc4c5ccc6c7c(ccc(c8ccc-3c2c48)c75)-c2c(-c3ccc4ccccc4c3)ccc(-c3ccc4ccccc4c3)c2-6)cc1` [Compound 2], the “ΔT = decomposition temperature − sublimation temperature” value was 60 °C. With `c1ccc(-c2ccccc2-c2c3cc4c(cc3c(-c3ccccc3)c3c5ccc6c7cccc8cccc(c9ccc(c23)c5c69)c87)c2ccc3c5cccc6cccc(c7ccc4c2c37)c65)cc1` [Exemplified compound RD21] the figure was 100 °C; with `c1ccc(-c2ccccc2-c2ccc(-c3ccccc3-c3ccccc3)c3c2-c2ccc4c5ccc6c7c(ccc(c8ccc-3c2c48)c75)-c2c(-c3ccccc3)ccc(-c3ccccc3)c2-6)cc1` [Exemplified compound RD30], 130 °C.
